Experiment: Plasma exposures following IV infusion alone or in combination to Sprague-Dawley rats
Conditions: for concentration at 0.25 h: 0.250 hrs; for concentration at 0.5 h: 0.500 hrs
Method: The pharmacokinetics of EFdA and prodrug formula 4-A, as well as lenacapavir were studied in rats after IV infusion administration alone or in combination at a dose of 1.0 mg/kg each.
Formulations: The prodrugs and lenacapavir were formulated alone or in combination as solutions at 1.0 mg/mL each in 20% […], 10% Solutol aqueous solution within 0.5 hour prior to dose.
Dose Administration and Sample Collection: The in-life phase of this study was conducted at the WuXi Apptec (WuXi) at Shanghai, China in accordance with the WuXi Institutional Animal Care and Use Committee (IACUC) standard animal procedures along with the IACUC guidelines that are in compliance with the Animal Welfare Act, the Guide for the Care and Use of Laboratory Animals. and was approved by the IACUA Committee. Male Sprague-Dawley rats (0.262+/−0.019 kg) were used for the studies. Each drug was administered as a single dose by 30-min IV infusion (1 ml/kg) alone or in combination. Plasma samples were collected at 0 (pre-dose), 5, 10, 15 and 30 min, 1, 2, 4, 7, 12 and 24 h post-dose. Blood (approximately 0.1 mL) was processed immediately for plasma by centrifugation at 3,200 g at 4° C. for 10 min within half an hour of collection. Plasma samples were frozen and maintained at −70° C. until analyzed. To stabilize the prodrug at the sample collection and subsequent analysis, the following stabilizing reagents were added to the blood collection K2EDTA tubes on wet ice prior to sample collection: for each 100 mL of blood, 10 mL of premade inhibitor cocktail consists of 600 mM Citric Acid, 400 mM PMSF, 400 mM NaF, and 400 mM Dichlorvos.
Determination of EFdA and Prodrugs in plasma: Briefly, plasma (20 μL) was mixed with 100 l acetonitrile to precipitate protein. Consistent with sample collection procedure, the same cocktail protocol was also added to stabilize the prodrug in the standard and QC samples.
Bioanalysis: A Sciex API-6500 Plus triplequadrupole mass spectrometer coupled with a Waters Acquity UPLC system (Framingham, MA 01701) was used for quantitative analysis of plasma samples. The column was a Waters HSS T3 column (2.1×50 mm, 1.8 micrometer). The mobile phases used were: A, 0.1% formic acid in water; B, 0.1% formic acid in acetonitrile. For the analysis of EFdA and prodrugs in plasma, the flow rate was 0.6 mL/min with a total run time of 2.0 min. […] Detection of the prodrug and EFdA were achieved using positive ion electrospray mass spectroscopic mode using unit resolution mode. Multiple reaction monitoring (MRM) modes were used to quantify both prodrug and EFdA, e.g. the MRM transition for EFdA was 294.0-154.2 Da, and the transition for prodrug 4-A was 449.3-164.9 Da. For the analysis of lenacapavir in plasma, the flow rate was 0.7 mL/min with a total run time of 1.5 min. The HPLC gradient was initiated at 95% A/5% B for 0.50 min, followed by linear gradient increase to […] over the next 0.2 min; the gradient was subsequently maintained at 100% of mobile B over the next 0.7 min before ramping down to 95% mobile phase A within the following 0.1 min. Detection of lenacapavir was achieved using positive ion electrospray mass spectroscopic mode using unit resolution mode. Multiple reaction monitoring (MRM) modes were used to quantify lenacapavir, e.g. the MRM transition for lenacapavir was 968.1-869.4 Da. Peak areas were integrated by the Sciex program Analyst®, version 1.6.3, operating on a Windows 7 computer where concentrations were determined by a weighted (1/x2) linear regression of peak area ratios (peak area of EFdA/peak area of corresponding IS) versus the nominal concentrations of the plasma calibration standards. Calculations were performed on unrounded numbers. Overall, Analyst® determined the precision and accuracy for the calibration standards and QC samples.

[1] = male, Sprague-Dawley, rat, in vivo, 1 mg/kg, Lenacapavir Concentrations in Rat Plasma When Dosed Alone, Lenacapavir IV infusion 1.0 mg/kg alone, individual animals
[2] = male, Sprague-Dawley, rat, in vivo, 1 mg/kg, Lenacapavir Concentrations in Rat Plasma When Dosed Alone, Lenacapavir IV infusion 1.0 mg/kg alone, Mean
[3] = male, Sprague-Dawley, rat, in vivo, Lenacapavir Concentrations in Rat Plasma When Dosed with Prodrug formula 4-A, Lenacapavir IV infusion 1.0 mg/kg with Prodrug formula 4-A, Mean
[4] = male, Sprague-Dawley, rat, in vivo, iv, 1 mg/kg

## CC(C)(C#Cc1ccc(-c2ccc(Cl)c3c(NS(C)(=O)=O)nn(CC(F)(F)F)c23)c([C@H](Cc2cc(F)cc(F)c2)NC(=O)Cn2nc(C(F)(F)F)c3c2C(F)(F)[C@@H]2C[C@H]32)n1)S(C)(=O)=O [Lenacapavir, reference compound]
[1]
  concentration at 0.25 h: 796 ng/mL
  concentration at 0.5 h: 980 ng/mL
  concentration at 1 h: 261 ng/mL
  concentration at 2 h: 181 ng/mL
  concentration at 4 h: 171 ng/mL
  concentration at 12 h: 145 ng/mL
  concentration at 24 h: 141 ng/mL
[2]
  concentration at 0.5 h: 789 ng/mL
  concentration at 1 h: 222 ng/mL
  concentration at 2 h: 150 ng/mL
  concentration at 4 h: 156 ng/mL
  concentration at 7 h: 138 ng/mL
  concentration at 12 h: 117 ng/mL
  concentration at 24 h: 136 ng/mL
  concentration at 72 h: 69.6 ng/mL
male, Sprague-Dawley, rat, in vivo, Lenacapavir Concentrations in Rat Plasma When Dosed with Prodrug formula 4-A, Lenacapavir IV infusion 1.0 mg/kg with Prodrug formula 4-A, 0.0830 hrs, Mean
  concentration at 0.083 h: 413 ng/mL
male, Sprague-Dawley, rat, in vivo, Lenacapavir Concentrations in Rat Plasma When Dosed with Prodrug formula 4-A, Lenacapavir IV infusion 1.0 mg/kg with Prodrug formula 4-A, 0.167 hrs, Mean
  concentration at 0.167 h: 507 ng/mL
[3]
  concentration at 0.25 h: 590 ng/mL
  concentration at 0.5 h: 645 ng/mL
  concentration at 1 h: 162 ng/mL
  concentration at 2 h: 127 ng/mL
  concentration at 4 h: 93.5 ng/mL
  concentration at 7 h: 93 ng/mL
  concentration at 12 h: 128 ng/mL
  concentration at 24 h: 133 ng/mL
  concentration at 72 h: 83.3 ng/mL
[4]
  AUC: 7980 ng·h/mL
  Cmax: 903 ng/mL
rats, IV infusion
  Pharmacokinetic profile of lenacapavir on co-administration of prodrugs, e.g. formula 4-A: not affected

From US12257264B2, “Combination therapy for HIV with adenosine derivative and capsid inhibitors” (Brii Biosciences, Inc., priority 2021, dated 2025)
